Data from patent US9056105B2, “Method for treatment of bone diseases and fractures” (INDIANA UNIVERSITY RESEARCH AND TECHNOLOGY CORPORATION, priority 2008, dated 2015).

Columns and labels:
MLO-A5 osteocyte cells = assay: mRNA levels by real-time PCR in MLO-A5 osteocyte cells; type: cell-based; conditions: 100 nM-50 μM, 1-24 h
Description: (§1) Responses to Administration of Salubrinal—In vitro responses to salubrinal: In order to evaluate the effects of salubrinal, MC3T3 E1 osteoblast-like cells and MLO-A5 osteocyte cells (Barragan-Adjemian, C., et al., “Mechanism by which MLO-A5 late osteoblasts/early osteocytes mineralize in culture: similarities with mineralization of lamellar bone,” Calcif. Tissue Int. 79:340-353 (2006)) were incubated with salubrinal at 100 nM-50 μM for 1-24 h. The mRNA levels of the selected genes, TF4, ATF3, Osteocalcin (OCN), and CHOP, were determined by real-time PCR. […] In MC3T3 cells, for instance, the Osteocalcin mRNA level, which is regulated by ATF4 and Runx2 (Xiao et al. 2005), was elevated 11.8±0.2 fold at 10 μM salubrinal in 24 h.

[1] = test system: ATF4, ATF3, CHOP, Runx2, Osterix, Rank 1, Osteocalcin mRNA; assay: mRNA expression levels by real-time PCR in MC3T3 cells; type: cell-based, mouse
Description: Responses to Administration of Thapsigargin—Upregulation of transcription factors linked to bone formation as well as PERK: The effects of 10 nM thapsigargin on mRNA expression levels of ISR-linked genes (ATF4, ATF3, and CHOP) as well as genes involved in bone remodeling (Runx2, Osterix, and Rank 1), were examined (FIG. 7). […] Out of 4 transcription factors (ATF4, ATF3, Runx2, and Osterix), the level of ATF4 mRNA was elevated 2-4 fold throughout the treatments. […] The mRNA level of type 1 collagen was elevated 5 h and 10 h for T1h (1 h exposure at 10 nM).
as §1

brainstem motoneurons = conditions: hypoxia and reoxygenation events; cited from earlier work
rat femur = assay: Rat femur healing of surgical wounds, micro CT; type: in vivo; conditions: for increase in cortical thickness vs control: anterior hole; for reduction in wound size vs control: anterior holes; for increase in cortical thickness: posterior hole
Description: Rat femur—healing of surgical wounds. A surgical hole with ˜2.0 mm in diameter was generated in the left and right femurs of twenty female SD rats (˜8 weeks, body weight ˜180 g). The holes were drilled through the femur from the anterior surface to the opposite cortex (posterior surface) in the middle of the femur. During the first 5 days, 100 μl of salubrinal solution at dosage of 0.025 mg/kg was injected subcutaneously to the left limb and a PBS solution (vehicle control) in the right limb. The injection site was closed to the anterior surgical hole. Rats were sacrificed on days 10 or 20 after surgery, and the axial and transverse hole sizes as well as cortical thickness (1.5 mm proximal and distal to the center of the hole) were determined with micro CT. […] Regarding the anterior holes, the size of the wounds 10 days after surgery was smaller in the salubrinal treated group by 10.8% (1.905±0.018 mm in control and 1.700±0.021 mm in salubrinal; p<0.001). The size in 20 day samples was further decreased by 18.0% (1.812±0.017 mm in control and 1.486±0.026 mm in salubrinal; p<0.001). […] Note that the reduction in the wound size on day 20 was more significant than those on day 10 in both the anterior and posterior holes (both p<0.001) (FIG. 20B).

mouse tibia = assay: Mouse tibia bone formation, ankle loading plus local salubrinal; type: in vivo; conditions: 0.025 mg/kg (100 μM) salubrinal plus ankle loading, 5 days
Description: Mouse tibia-bone formation: Twenty C57/BL/6 Female Mice (˜8 weeks, body weight˜18 g) were employed to examine the combined effects of ankle loading and local administration of salubrinal to the tibia (Zhang P, et al., Salubrinal stimulates anabolic responses in mouse femora, 55th Ann Meeting ORS (2009)). Local administration was targeted into a bone marrow cavity from the proximal tibia. A total volume of 20 μl PBS was injected to the left hindlimb with or without 0.025 mg/kg (100 μM) salubrinal (Calbiochem) using a micro-syringe with a 0.5-inch #26-gauge needle (Worsham D N, et al., In vivo gene transfer into adult stem cells in unconditioned mice by in situ delivery of a lentiviral vector, Mol. Ther. 14:514-24 (2006); Zhu Y, et al., eIF-2α protects brainstem motoneurons in a murine model of sleep apnea, J. Neurosci. 28:2168-78 (2008)). In examination of the combined effects of mechanical loading and salubrinal administration, ankle loading was given for 5 consecutive days after administration of salubrinal on each day. The mouse was placed in an anesthetic induction chamber to cause sedation and then mask-anesthetized using 1.5% isoflurane. With a custom-made piezoelectric mechanical loader, loads were applied to the left ankle for 5 min/day in the lateral-medial direction. The loading frequency was 5 Hz, and the peak-to-peak force was 0.5 N (FIG. 15). […]

rat tibia = assay: Rat tibia healing of surgical wounds, micro CT; type: in vivo; conditions: for reduction in wound size vs control: medial cortex
From the text: Rat tibia—healing of surgical wounds. Twenty female SD rats (˜8 weeks, body weight˜180 g) received a surgical hole with ˜2.0 mm in diameter in the left and right tibiae (Zhang P., et al., Knee loading accelerates bone healing in mice, J. Bone Miner. Res. 22:1979-1987 (2007)). The hole was located on the medial surface ˜15 mm distant apart from the proximal end of the tibia (Chiba S., et al., Molecular analysis of defect healing in rat diaphyseal bone, J. Vet. Med. Sci. 63:603-606 (2001)). During the first 5 days, 100 μl of salubrinal solution at dosage of 0.025 mg/kg was injected into the left limb and a PBS solution (vehicle control) in the right limb (Wang J W, et al., Locally applied simvastatin promotes fracture healing in ovariectomized rat, Osteoporosis Int. 18:1641-1650 (2007)). Injection was subcutaneous targeted to the wound site. Rats were sacrificed on days 10 or 20 after surgery, and the axial and transverse length of the holes as well as cortical thickness (1.5 mm proximal and distal to the center of the hole) were determined with micro CT imaging (μCT-20, Scanco Medical AG) (FIG. 16).

rat brain = conditions: intra-cerebroventricular or intra-peritoneal administration; cited from earlier work
rat β-cells = conditions: 5-75 μM, dosage dependent; cited from earlier work
femora of C57BL/6 mice = assay: Intramedullary injection into mouse femur, BMD and BMC; type: in vivo
Description: Responses to Administration of Salubrinal—In Vivo Responses to salubrinal: In order to evaluate the effects of salubrinal in vivo, salubrinal was injected into an intramedullary cavity of the left femora of C57BL/6 mice and alterations in bone mineral density (BMD) and bone mineral content (BMC) were determined. There were 9 salubrinal treated mice as well as 9 placebo mice (injection of PBS). All mice received 4 injections of either salubrinal or PBS in the left femur, while the right femur was used as contralateral control. In four consecutive injections with a 0.5-inch #26-gauge needle and a Hamilton micro-syringe, the laterial side was used on the 1st and 3rd injections and the medial side on the 2nd and 4th injections. An injection volume was 20 μl for salubrinal or PBS, and the salubrinal concentration was 50 μM. […] At the time of harvest (2 wks after the 1st injection), an increase in body weight in Salubrinal group (0.80±0.13 g) was higher than that in Placebo group (0.28±0.15 g; p<0.05). Harvested bone samples were analyzed with PIXImus (version 1.4, GE Medical System Lunar) for determination of BMD and BMC.

MC3T3 cells [2] = assay: Microarray analysis (GSEA, IPA) of thapsigargin-induced mild ER stress; type: cell-based, mouse; conditions: 1 h exposure at 10 nM
Description: Responses to Administration of Thapsigargin—Linkage to hypoxia through microarray analysis: In response to thapsigargin-induced mild ER stress (1 h exposure at 10 nM), microarray experiments were conducted. First, Gene Set Enrichment Analysis (GSEA; Broad Institute) was used to identify a group of genes that shared common biological functions (Hamamura, K., et al., “Microarray analysis of thapsigargin-induced stress to the endoplasmic reticulum of mouse osteoblasts,” J. Bone Miner. Metab. 26:231-240 (2008)). For each group of gene sets, GSEA calculates an enrichment score and evaluates statistical significance in the enrichment score. […] The highest normalized enrichment score was given to the gene set, HYPOXIA_UP. All genes present in the array were reordered based on a ranked list-metric value (a mean expression ratio between the thapsigargin-treated and untreated samples), and the best enrichment score of “−0.66” was assigned. Note that if the expression ratio is random among the genes in HYPOXIA_UP, the expected enrichment score is ±0.23. The enrichment score, ranked […] and P (enrichment score) supported the conclusions drawn from the software program output. […]

[3] = test system: PERK, PKR, p-38 MAPK, ERK1/2; assay: Phosphorylation of eIF2α kinases and MAP kinases; type: cell-based, mouse; conditions: 10 nM, 1 h exposure
Description: In response to T1h (1 h exposure at 10 nM), the level of phosphorylation of two eIF2α kinases (PERK and PKR), and two MAP kinases (p-38 MAPK and ERK1/2) was examined (FIG. 8).

MC3T3 cells [4] = type: cell-based, mouse
[5] = test system: CHOP, pro-caspase 3, cleaved caspase 3; assay: Protein levels of CHOP, pro-caspase 3 and cleaved caspase 3 (induction of apoptosis); type: cell-based, mouse; conditions: 10 nM
Description: (§2) At higher doses of 10 and 100 nM, the levels of eIF2α-p and ATF4 proteins were elevated (FIG. 5A). Thapsigarin is known to induce apoptosis when administered above a threshold concentration.

[6] = test system: eIF2α-p and ATF4 proteins; assay: Western blot of eIF2α-p and ATF4 proteins in MC3T3 E1 osteoblast-like cells; type: cell-based, mouse
Description: as §2
MS3T3 osteoblast-like cells were used to evaluate the level of eIF2α-p (phosphorylated form of eukaryotic initiation factor 2—subunit α) in response to salubrinal.

[7] = 10 days after surgery, 0.025 mg/kg

O=C(/C=C/c1ccccc1)NC(NC(=S)Nc1cccc2cccnc12)C(Cl)(Cl)Cl (stereo not drawn) [salubrinal]
mRNA levels of ATF4, ATF3, Osteocalcin and CHOP (MLO-A5 osteocyte cells): did not show any significant alterations
mRNA levels of ATF4, ATF3, Osteocalcin and CHOP ([1]; MC3T3 cells, 100 nM-50 μM, 1-24 h): upregulated
motoneuronal injury (brainstem motoneurons): suppressed motoneuronal injury
increase in cortical thickness vs control (rat femur; day 10): 11.0%
increase in cortical thickness vs control (rat femur; day 20): 25.7%
reduction in wound size vs control (rat femur; [7]): 10.8%
reduction in wound size vs control (rat femur; 20 days): 18.0%
increase in cortical thickness (rat femur; postoperative 10 days): 13.8%
increase in cortical thickness (rat femur; postoperative 20 days): 21.3%
tibia BMC (mouse tibia): 0.0154 ± 0.0004 g
tibia BMD (mouse tibia): 0.0443±0.0011 g/cm^2
increase in cortical thickness vs control (rat tibia; day 10): 11.6%
increase in cortical thickness vs control (rat tibia; day 20): 20.3%
reduction in wound size vs control (rat tibia; [7]): 12.3%
reduction in wound size vs control (rat tibia; 20 days): 19.1%
excitotoxic neuronal death in vivo (rat brain): decreased excitotoxic neuronal death
apoptosis (rat β-cells): induced apoptosis
BMD of injected femur (femora of C57BL/6 mice; 20 μl 50 μM injection, 4 injections, mean±s.e.m.): 0.0456±0.0011 g/cm^2
BMD compared to contralateral control (femora of C57BL/6 mice; p=0.02): increased
BMC compared to contralateral control (femora of C57BL/6 mice; p=0.09): showed a trend to elevate

C/C=C(/C)C(=O)O[C@H]1C(C)=C2[C@H]([C@@H]1OC(=O)CCCCCCC)[C@@](C)(OC(C)=O)C[C@H](OC(=O)CCC)[C@@]1(O)[C@H]2OC(=O)[C@@]1(C)O [thapsigargin]
increase in Runx2 mRNA ([1]; 10 nM): started at 3 h and peaked at 5 h
mRNA level of CHOP ([1]; 10 nM): 10-35 fold
mRNA level of type 1 collagen ([1]; 10 nM, 1 h exposure, 5 h and 10 h): elevated
Rank 1 mRNA ([1]; 10 nM, 3 h for T2h and 10 h for T3h): significantly up
level of Osteocalcin mRNA ([1]; 1-100 nM for 1-24 h): did not increase
core enrichment genes in HYPOXIA_UP vs control (MC3T3 cells [2]): significantly upregulated
level of p-ERK1/2 [3]: not altered
level of p-PERK [3]: elevated
level of p-PKR [3]: not altered
level of p-p38 MAPK [3]: elevated
numbers of live and dead cells (MC3T3 cells [4]; 10 nM, 1 h incubation): does not alter
cell number or mortality vs control cells (MC3T3 cells [4]; 1 h exposure at 10 nM): no significant difference
level of active (cleaved) caspase 3 [5]: increased after 24 h
level of CHOP protein ([5]; higher for 5, 10 and 24 h): started to increase after 3 h
levels of eIF2α-p and ATF4 proteins ([6]; 10 and 100 nM): elevated
eIF2α-p and ATF4 protein expression ([6]; dosages below 0.1 nM): no detectable upregulation
